Literature values in patent US6887842B1, “Modulating a pharmacokinetic property of a drug by administering a bifunctional molecule containing the drug” (The Board of Trustees of the Leland Stanford Junior …, priority 1999, dated 2005).
Read-outs that look alike come from different tables or passages of the source. Values belong to the compound of their own block, whether it stands above or below them.

Experiments:
[1] = in vivo
albumin = albumin (Homo sapiens, UniProt P02768)
[2] = in vivo; remark: listed apart in the source
[3] = in vivo; remark: listed apart in the source

albumin, sequence (P02768 25-609, species assumed): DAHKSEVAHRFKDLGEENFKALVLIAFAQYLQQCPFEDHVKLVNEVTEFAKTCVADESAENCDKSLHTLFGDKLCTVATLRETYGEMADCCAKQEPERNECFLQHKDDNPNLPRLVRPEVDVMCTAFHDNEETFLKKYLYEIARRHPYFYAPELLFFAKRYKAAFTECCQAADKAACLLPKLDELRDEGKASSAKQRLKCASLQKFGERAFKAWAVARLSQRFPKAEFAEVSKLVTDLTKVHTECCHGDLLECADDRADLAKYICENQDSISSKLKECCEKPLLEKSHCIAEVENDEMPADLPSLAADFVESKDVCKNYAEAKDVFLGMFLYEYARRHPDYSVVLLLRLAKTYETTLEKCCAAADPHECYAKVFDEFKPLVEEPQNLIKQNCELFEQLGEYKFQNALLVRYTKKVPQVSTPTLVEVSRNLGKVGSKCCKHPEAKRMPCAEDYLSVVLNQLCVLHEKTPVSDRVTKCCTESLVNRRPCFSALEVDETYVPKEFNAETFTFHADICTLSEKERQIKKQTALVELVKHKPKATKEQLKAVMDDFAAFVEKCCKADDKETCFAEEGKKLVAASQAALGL

degree of binding to albumin (albumin; plasma): extensive binding to albumin
Compound: COc1ccc2cc([C@H](C)C(=O)O)ccc2c1 [naproxen]

hepatic first-pass clearance [1]: extensive hepatic first-pass clearance
Compound: Sc1ncnc2nc[nH]c12 [mercaptopurine]

hepatic first-pass clearance [1]: extensive hepatic first-pass clearance
Compound: CC[C@H](C)C(=O)O[C@H]1C[C@H](O)C=C2C=C[C@H](C)[C@H](CC[C@@H](O)C[C@@H](O)CC(=O)O)[C@H]21 [pravastatin]

half-life [3]: 60 h
Compound: CO[C@H]1C[C@@H]2CC[C@@H](C)[C@@](O)(O2)C(=O)C(=O)N2CCCC[C@H]2C(=O)O[C@H]([C@H](C)C[C@@H]2CC[C@@H](O)[C@H](OC)C2)CC(=O)[C@H](C)/C=C(\C)[C@@H](O)[C@@H](OC)C(=O)[C@H](C)C[C@H](C)/C=C/C=C/C=C/1C [rapamycin]

Continued, compound first:

Compound: CC[C@H](C)C(=O)O[C@H]1C[C@@H](C)C=C2C=C[C@H](C)[C@H](CC[C@@H]3C[C@@H](O)CC(=O)O3)[C@H]21 [lovastatin]
hepatic first-pass clearance [1]: extensive hepatic first-pass clearance

Compound: COc1ccc([C@@H]2Sc3ccccc3N(CCN(C)C)C(=O)[C@@H]2OC(C)=O)cc1 [diltiazem]
hepatic first-pass clearance [1]: extensive hepatic first-pass clearance

Compound: Cc1noc(NS(=O)(=O)c2ccc(N)cc2)c1C [Sulfisoxazole]
degree of binding to albumin (albumin): extensively bound to albumin
distribution (extracellular space) [2]: found almost exclusively in the extracellular space

Compound: Cc1ccc2nc(N)[nH]c(=O)c2c1Sc1ccncc1 [AG 337]
half-life [3]: 2 to 3 h

Compound: C=CCN1CC[C@]23c4c5ccc(O)c4O[C@H]2C(=O)CC[C@@]3(O)[C@H]1C5 [naloxone]
hepatic first-pass clearance [1]: extensive hepatic first-pass clearance

Compound: FK506
half-life [3]: 30 h

Compound: CN(C)CCCN1c2ccccc2Sc2ccc(Cl)cc21 [chlorpromazine]
degree of binding to albumin (albumin; plasma): extensively bound to albumin
